Assay results published in DBAASP.
In brackets after ≈: the same amount, converted by molar mass. Values belong to the compound of their own block, whether it stands above or below them.

Columns and labels:
Assay in all cases: ≥ marks a high value that may be exact or a test limit, other limits are often not marked, values filed in µg/mL are converted to µM
Staphylococcus aureus = system: Staphylococcus aureus
Escherichia coli BL21 = system: Escherichia coli BL21
[1] = system: Candida tropicalis ATCC 750
Escherichia coli ESBL = system: Escherichia coli ESBL
[2] = system: Cryptococcus neoformans ATCC 208821
Candida albicans SC5314 = system: Candida albicans SC5314
Bacillus subtilis 168 = system: Bacillus subtilis 168
Candida krusei ATCC 6258 = system: Candida krusei ATCC 6258
[3] = system: Candida parapsilosis ATCC 22019
[4] = system: Aspergillus niger CECT 2694
[5] = system: Penicillium expansum EPS 26
[6] = system: Rhizopus stolonifer CECT 2344
[7] = system: Fusarium oxysporum f. sp. lycopersici ATCC 201829
[8] = system: Pseudomonas aeruginosa KCTC 1637
[9] = system: Staphylococcus epidermidis KCTC 3096
[10] = system: Bacillus subtilis KCTC 1918
[11] = system: Candida albicans TIMM 1768
[12] = system: Trichosporon beigelii KCTC 7707
[13] = system: Saccharomyces cerevisiae KCTC 7296
[14] = system: Salmonella typhimurium KCTC 1926
[15] = system: Pectobacterium carotovorum subsp. carotovorum DSM 30168
[16] = system: Pseudomonas syringae pv. tomato DC3000
Alternaria alternata = system: Alternaria alternata
[17] = system: Pseudomonas syringae pv. syringae DSM 10604
[18] = system: Clavibacter michiganensis subsp. michiganensis DSM 46294
[19] = system: Xanthomonas vesicatoria DSM 50861
Cladosporium herbarum = system: Cladosporium herbarum
Botrytis cinerea = system: Botrytis cinerea
[20] = system: Pseudomonas corrugata DSM 7228
[21] = system: Bacillus megaterium KCTC 1096
Proteus vulgaris = system: Proteus vulgaris
[22] = system: Staphylococcus aureus KCTC 1621
[23] = system: Escherichia coli KCTC 1682
[24] = system: Staphylococcus aureus 90857
[25] = system: Staphylococcus aureus ATCC 15752
[26] = system: Pseudomonas aeruginosa ATCC 27853
[27] = system: Escherichia coli ATCC 27325
[28] = system: Salmonella typhimurium KCTC 2370
[29] = system: Cryptococcus neoformans ATCC 34881
[30] = system: Enterococcus faecalis ATCC 29212
[31] = system: Candida albicans ATCC 10231
[32] = system: Micrococcus luteus ATCC 10240
[33] = system: Saccharomyces cerevisiae ATCC 44774
[34] = system: Bacillus subtilis KCTC 3038

SMILES: CC(C)C[C@H](NC(=O)[C@H](CCCCN)NC(=O)[C@H](CC(C)C)NC(=O)[C@H](CCCCN)NC(=O)[C@H](CC(C)C)NC(=O)[C@@H]1CCCN1C(=O)[C@H](CCCCN)NC(=O)[C@H](CCCCN)NC(=O)[C@H](CC(C)C)NC(=O)[C@H](CC(C)C)NC(=O)[C@@H](N)CCCCN)C(N)=O [KLLKKPLKLKL]
MIC [8]: 6.3 µM (≈ 8.32 µg/mL) | MIC [9]: 6.3 µM (≈ 8.32 µg/mL) | MIC [10]: 12.5 µM (≈ 16.5 µg/mL) | MIC [11]: 25 µM (≈ 33 µg/mL) | MIC [12]: 6.3 µM (≈ 8.32 µg/mL) | MIC [13]: 25 µM (≈ 33 µg/mL) | MIC [14]: 0.8 µM (≈ 1.06 µg/mL)

SMILES: CC[C@H](C)[C@H](NC(=O)[C@@H](NC(=O)CNC(=O)[C@H](C)NC(=O)[C@H](CCSC)NC(=O)[C@@H](NC(=O)CNC(=O)[C@H](Cc1ccccc1)NC(=O)[C@@H](NC(=O)[C@H](CC(C)C)NC(=O)[C@@H](NC(=O)[C@H](CC(C)C)NC(=O)[C@H](CCCCN)NC(=O)[C@H](CCCN=C(N)N)NC(=O)[C@@H](N)CCCCN)[C@@H](C)O)C(C)C)C(C)C)C(C)C)C(=O)NCC(=O)N[C@H](C(=O)N[C@@H](CCCCN)C(=O)N[C@@H](CCCCN)C(=O)N[C@@H](CCCN=C(N)N)C(N)=O)[C@@H](C)O [KRKLTLVFGVMAGVIGTKKR]
MIC [15]: 18.2 µM (≈ 40 µg/mL) | MIC [16]: 18.2 µM (≈ 40 µg/mL) | MIC (Alternaria alternata): ≥ 45.4 µM | MIC [17]: 18.2 µM (≈ 40 µg/mL) | MIC [18]: 9.08 µM (≈ 20 µg/mL) | MIC [19]: 18.2 µM (≈ 40 µg/mL) | MIC (Cladosporium herbarum): ≥ 45.4 µM | MIC (Botrytis cinerea): ≥ 45.4 µM | MIC [20]: 18.2 µM (≈ 40 µg/mL)

SMILES: CC(C)[C@H](NC(=O)CNC(=O)[C@H](CCC(N)=O)NC(=O)[C@@H](NC(=O)[C@@H](NC(=O)[C@@H]1CCCN1C(=O)[C@H](CCCN=C(N)N)NC(=O)[C@@H](NC(=O)CNC(=O)[C@@H](N)CCCN=C(N)N)C(C)C)C(C)C)C(C)C)C(=O)N[C@@H](CCCCN)C(=O)N[C@@H](CCC(=O)O)C(=O)N[C@@H](CCCCN)C(=O)N[C@H](C(=O)N[C@@H](CCCN=C(N)N)C(=O)O)C(C)C [RGVRPVVQGVKEKVR]
MIC [25]: ≥ 37.5 µM | MIC [26]: > 37.5 µM | MIC [27]: ≥ 37.5 µM | MIC [28]: ≥ 37.5 µM | MIC [29]: ≥ 37.5 µM | MIC [30]: > 37.5 µM | MIC [31]: > 37.5 µM | MIC [32]: ≥ 37.5 µM | MIC [33]: ≥ 37.5 µM | MIC [34]: ≥ 37.5 µM

The remaining lines, values ahead:

MIC (Staphylococcus aureus): 30 µM (≈ 44 µg/mL) | MIC (Escherichia coli BL21): 30 µM (≈ 44 µg/mL) | MIC [1]: ≥ 100 µM | MIC (Escherichia coli ESBL): 20 µM (≈ 29.3 µg/mL) | MIC [2]: 25 µM (≈ 36.6 µg/mL) | MIC (Candida albicans SC5314): ≥ 800 µM | MIC (Bacillus subtilis 168): 5 µM (≈ 7.33 µg/mL) | MIC (Candida krusei ATCC 6258): ≥ 100 µM | MIC [3]: ≥ 1600 µM
SMILES: CC[C@H](C)[C@H](N)C(=O)N[C@H](C(=O)N[C@@H](CCCCN)C(=O)N[C@@H](CCCCN)C(=O)N[C@H](C(=O)N[C@H](C(=O)N[C@@H](CCCCN)C(=O)N[C@@H](CCCCN)C(=O)N[C@H](C(=O)N[C@H](C(=O)N[C@@H](CCCCN)C(=O)N[C@@H](CCCCN)C(N)=O)[C@@H](C)CC)[C@@H](C)CC)[C@@H](C)CC)[C@@H](C)CC)[C@@H](C)CC [IIKKIIKKIIKK]

MIC [4]: 22.4 µM (≈ 31 µg/mL) | MIC [5]: ≥ 100 µM | MIC [6]: ≥ 70.7 µM | MIC [7]: 0.849 µM (≈ 1.18 µg/mL)
SMILES: CC[C@H](C)[C@H](NC(=O)[C@H](CCCCN)NC(=O)[C@H](CCCCN)NC(=O)[C@H](Cc1ccccc1)NC(=O)[C@H](CC(C)C)NC(=O)[C@H](CCCCN)NC(=O)[C@@H](N)CCCCN)C(=O)N[C@@H](CC(C)C)C(=O)N[C@@H](CCCCN)C(=O)N[C@@H](CCCCN)C(=O)N[C@@H](CC(C)C)C(N)=O [KKLFKKILKKL]

MIC [8]: 6.25 µM (≈ 13.6 µg/mL) | MIC [21]: 1.56 µM (≈ 3.39 µg/mL) | MIC [10]: 0.78 µM (≈ 1.69 µg/mL) | MIC (Proteus vulgaris): 1.56 µM (≈ 3.39 µg/mL) | MIC [22]: 3.12 µM (≈ 6.79 µg/mL) | MIC [23]: 6.25 µM (≈ 13.6 µg/mL)
SMILES: CC[C@H](C)[C@H](NC(=O)[C@H](CCCCN)NC(=O)[C@H](CCCCN)NC(=O)[C@H](Cc1ccccc1)NC(=O)[C@H](CC(C)C)NC(=O)[C@H](CCCCN)NC(=O)[C@H](Cc1c[nH]c2ccccc12)NC(=O)[C@@H](N)CCCCN)C(=O)N1CCC[C@H]1C(=O)N[C@@H](Cc1ccccc1)C(=O)N[C@@H](CC(C)C)C(=O)N[C@@H](Cc1cnc[nH]1)C(=O)N[C@@H](CC(C)C)C(=O)N[C@@H](C)C(=O)N[C@@H](CCCCN)C(=O)N[C@@H](CCCCN)C(=O)N[C@@H](Cc1ccccc1)C(N)=O [KWKLFKKIPFLHLAKKF]

MIC [15]: 26.3 µM (≈ 40 µg/mL) | MIC [16]: 6.57 µM (≈ 9.99 µg/mL) | MIC (Alternaria alternata): ≥ 65.7 µM | MIC [17]: 6.57 µM (≈ 9.99 µg/mL) | MIC [18]: 6.57 µM (≈ 9.99 µg/mL) | MIC [19]: 3.29 µM (≈ 5 µg/mL) | MIC [24]: 1.5 µM (≈ 2.28 µg/mL) | MIC (Cladosporium herbarum): 26.3 µM (≈ 40 µg/mL) | MIC (Botrytis cinerea): ≥ 65.7 µM | MIC [20]: 26.3 µM (≈ 40 µg/mL)
SMILES: CC(C)C[C@H](NC(=O)[C@H](CC(C)C)NC(=O)[C@H](CCCCN)NC(=O)[C@H](CCCCN)NC(=O)[C@H](CC(C)C)NC(=O)[C@H](CC(C)C)NC(=O)[C@H](CCCCN)NC(=O)[C@H](CCCCN)NC(=O)[C@H](CC(C)C)NC(=O)[C@H](C)NC(=O)[C@H](CCCCN)NC(=O)[C@H](CC(C)C)NC(=O)[C@@H](N)CC(C)C)C(N)=O [LLKALKKLLKKLL]

MIC [15]: 6.51 µM (≈ 9.99 µg/mL) | MIC [16]: 3.25 µM (≈ 5 µg/mL) | MIC [17]: 1.63 µM (≈ 2.5 µg/mL) | MIC [18]: 6.51 µM (≈ 9.99 µg/mL) | MIC [19]: 3.25 µM (≈ 5 µg/mL) | MIC [24]: ≥ 62.5 µM | MIC [20]: 0.325 µM (≈ 0.5 µg/mL)
SMILES: CC(C)C[C@H](NC(=O)[C@H](CC(C)C)NC(=O)[C@H](CCCCN)NC(=O)[C@@H](NC(=O)[C@H](CCCN=C(N)N)NC(=O)[C@H](CCCCN)NC(=O)[C@H](CCCCN)NC(=O)[C@@H](N)CCCN=C(N)N)C(C)C)C(=O)N[C@@H](CCCCN)C(=O)N[C@@H](CCCN=C(N)N)C(=O)N[C@@H](CC(C)C)C(=O)N[C@H](C(N)=O)C(C)C [RKKRVKLLKRLV]
